Data on six compounds can be found in patent US20180353501A1 (Arvinas, Inc., priority 2017, published 2018).

The target in one experiment is T1, MAK (Homo sapiens, UniProt P20794).
T1 construct: purchased DiscoverRx Corporation (KINOMEscan platform, service)
Put plainly: KINOMEscan in vitro kinase binding. The note with it: screened at 1000 nM; lower number = stronger binding. How it is done:
In Vitro Kinase Binding Affinity Determination for Example 1 and Example 2.
PROTAC in vitro binding affinities (Kd) to c-Met was determined using the KINOMEscan™ platform (DiscoverRx Corporation). The compounds were solubilized in DMSO and sent to DiscoverRx Corporation as 10 μM stock solutions.
Example 1 and Example 2 were screened at a 1000 nM concentration, and the results of the binding interactions are reported in “% Ctrl”, where a lower number indicates stronger binding. % Ctrl=[(test compound signal−positive control signal)/(negative control signal−positive control signal)]×100, wherein the negative control was DMSO.

Experiment [1] has as its target T2, p38δ (Homo sapiens, UniProt O15264).
T2 construct: endogenous in cells; host or cells: MDA-MB-231 (intact cells for degradation; cleared cell lysate for CETSA)
T2 sequence (O15264 1-365): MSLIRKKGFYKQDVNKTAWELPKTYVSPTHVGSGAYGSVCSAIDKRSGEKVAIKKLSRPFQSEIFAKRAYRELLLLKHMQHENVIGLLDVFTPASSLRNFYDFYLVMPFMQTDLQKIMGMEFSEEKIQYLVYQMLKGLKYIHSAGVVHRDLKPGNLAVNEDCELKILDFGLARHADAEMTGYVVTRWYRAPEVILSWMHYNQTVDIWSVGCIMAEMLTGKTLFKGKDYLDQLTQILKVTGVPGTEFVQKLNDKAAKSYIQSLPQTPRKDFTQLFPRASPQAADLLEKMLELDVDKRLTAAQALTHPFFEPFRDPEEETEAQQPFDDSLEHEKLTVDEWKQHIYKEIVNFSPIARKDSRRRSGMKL
Briefly: Western blot survey of p38 isoform degradation in MDA-MB-231 cells (incl. proteasome rescue, CHX chase, washout). In kind it is cell-based. As to conditions: MDA-MB-231 cells, western blot. The protocol:
(§1) FIGS. 11A and 11B. Survey of p38 isoform degradation with foretinib-based VHL PROTACs (related to FIGS. 9A-9C and Table 13). (A) Western blots of amide series PROTACs tested in increasing concentrations (0.025, 0.100, 0.250, 1.0, 5.0 μM) on MDA-MB-231 cells, in duplicate. (B) Same as in (A) but with the phenyl series PROTACs. Summary table of the DC50 (concentration at which half-maximal degradation is achieved) and Dmax (maximum percentage of degradation achieved) is reported, per exemplary PROTAC, in Table 13.
(§2) FIGS. 13A, 13B, 13C, and 13D. Exemplary compounds 50 and 46 degrade p38 isoforms in a manner that is rapid, sustained, and proteasome-dependent. (A) MDA-MB-231 cells were either pre-treated or not with the proteasome inhibitor epoxomicin (1 μM) or the neddylation inhibitor MLN4924 (1 μM) for 30 minutes and subsequently treated with either vehicle (DMSO), exemplary compound 50 (250 nM), or exemplary compound 46 (250 nM) for 6 hours. (B) Quantitative real-time PCR was performed after 24 hours of treatment with either vehicle (DMSO), exemplary compound 50 (250 nM), or exemplary compound 46 (250 nM) in MDAMB-231 cells. The dotted line represents DMSO-treated conditions standardized to a value of 1.0 and mRNA abundance (per treatment group) is represented as a foldchange relative to that value. Data is based on biological duplicates and is normalized to beta-tubulin. (C) Cycloheximide (CHX) chase assay. MDA-MB-231 cells were pre-treated with 100 μg/mL CHX for 1 hour prior to treating for the indicated times with either vehicle (DMSO), exemplary compound 50 (250 nM), or exemplary compound 46 (250 nM). Tubulin-normalized p38α and p38δ abundance values are reported beneath individual lanes. (D) MDA-MB231 cells were treated with either vehicle (DMSO), exemplary compound 50 (250 nM), or exemplary compound 46 (250 nM) for 24 hours before re-plating onto new plastic in fresh medium for an additional 24, 48, or 72 hours (“washout” conditions).
(§3) Cell culture. MDA-MB-231 and HeLa cells were obtained from the American Type Culture Collection (ATCC), cultured in RPMI-1640 (1×) and DMEM (1×) medium, respectively, containing 10% fetal bovine serum (FBS) and 1% penicillin-streptomycin and grown in a humidified incubator at 37° C. and 5% CO2.
(§4) Lysates from MDA-MB-231 cells were washed once with ice cold PBS (1×), followed by lysis in buffer containing 25 mM Tris [pH 7.5], 0.25% sodium deoxycholate, 1% Triton X-100, supplemented with 1× protease inhibitor cocktail (Roche) and phosphatase inhibitors (10 mM NaF, 1 mM Na3VO4, and 20 mM β-glycerophosphate), unless otherwise noted. Lysates were spun at 14,000×g for 10 minutes at 4° C. and supernatant was evaluated for protein content using a Pierce BCA Protein Assay (Thermo Fisher Scientific). 25 to 50 μg of protein was loaded onto 10% SDS-PAGE gels or 4-20% Criterion TGX precast gradient gels (Bio-Rad), transferred to nitrocellulose membranes, and probed with the specified antibodies overnight at 4° C. in 1×TBS-Tween (Tris buffered saline plus 0.02% Tween 20) containing 5% non-fat milk. Immunoblots were visualized using a Bio-Rad ChemiDoc imaging instrument and subsequently processed and quantified using the accompanying Bio-Rad ImageLab software.
(§5) MDA-MB-231 cells were plated at 3×10^5 cells per well in a 6-well dish, allowed to adhere overnight, and switched to serum-free RPMI-1640 (1×) media for 16 hours. Cells were then pre-treated with cycloheximide (Sigma) at 100 μg mL^−1 for 1 hour prior to adding either vehicle (DMSO) or PROTAC (250 nM). At the indicated timepoints, cells were immediately placed on ice, rinsed with 1×PBS, lysed, and boiled.
(§6) MDA-MB-231 cells were plated at 1.5×10^5 cells per well in a 6-well dish and allowed to adhere overnight. On the following day, all cells were treated with either vehicle (DMSO) or PROTAC (250 nM). […]
(In general: Immunoblotting shows a protein as a band on a membrane.)

For experiment [2], the target named is T3, p38α (Homo sapiens, UniProt Q16539).
T3 construct: selectively degrades p38α, whereas exemplary PROTAC 46 (10-atom linker, phenyl attachment) selectively degrades p38δ in MDA-MB-231 cells; endogenous in cells; host or cells: MDA-MB-231
T3 sequence (Q16539 whole entry): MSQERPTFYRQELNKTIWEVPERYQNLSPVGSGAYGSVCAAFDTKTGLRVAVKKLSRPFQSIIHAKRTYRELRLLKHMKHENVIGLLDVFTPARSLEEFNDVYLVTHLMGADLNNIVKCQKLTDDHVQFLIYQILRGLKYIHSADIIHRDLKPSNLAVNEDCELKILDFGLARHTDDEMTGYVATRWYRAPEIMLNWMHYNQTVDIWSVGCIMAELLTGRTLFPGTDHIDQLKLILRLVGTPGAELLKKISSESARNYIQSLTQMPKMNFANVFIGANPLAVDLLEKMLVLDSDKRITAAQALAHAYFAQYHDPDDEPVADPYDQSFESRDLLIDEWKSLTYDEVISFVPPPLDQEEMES
Described as above. Type of experiment: cell-based. The note with it: MDA-MB-231 cells, western blot; for Dmax: read-out: p38α Dmax (maximum percentage of degradation achieved). How it is done: as §1, §2, §3, §4, §5, §6

Experiment [3] deals with T2, p38δ. Put plainly: Cellular assay of target protein degradation (MDA-MB-231 cells, ELISA). Type of experiment: cell-based. As to conditions: for DC50: read-out: p38δDC50/nM [MDA-MB-231]. The protocol: (§7) Protocol of the cellular assay of target protein degradation (MDA-MB-231 cells, ELISA).
(§8) For detection Cell Signaling PathScan Sandwich ELISA Catalog#12850 was used. MDA-MB-231 cells and […] were cultured in ATCC DMEM+ATCC FBS and plated 40,000/well 100 μl/well in RPMI P/S with 5% CSS Omega (bovine) serum into a 96 well plate. The cells were grown for a minimum of 3 days, dosed with compounds in 0.1% DMSO (diluted with 5% CSS) and incubated with aspiration for 4 hours. 100 μl of 1× Cell Signaling lysis buffer #9803 (36 mL dH2O+4 mL Cell Signaling lysis buffer) was added. The incubation was placed on cold room shaker for 10 minutes at speed 8-9.5 μl to 100 μL of Diluent was transferred to ELISA plate (0.15 μg/mL-0.075 μg/mL) and stored at 4° C. overnight on cold room shaker speed 5 (gentle swirl) and then shaken next morning at 37° C. for 30 minutes. The preparation was washed 4×200 μl with ELISA wash buffer and aspirated with eight-channel aspirator. 100 μl/well of target protein detection antibody was added after, which the preparation was covered and shaken at 37° C. for 1 hour. 100 μl TMB was added, and the mixture was shaken for 5 min while under observation. When TMB turned light blue, 100 μl of Stop solution was added, and the mixture was shaken and read at 450 nm. Also read at 562 nm for background subtraction.
(In general: In an ELISA, binding on a coated surface is turned into a signal by an enzyme label.)

For experiment [4], the target named is T3, p38α. The description is as above. In kind it is cell-based. The protocol: as §7, §8
The next experiment concerns the target T4, cMET (Homo sapiens, UniProt P08581).
T4 construct: endogenous in cells; host or cells: MDA-MB-231
Described as above. In kind it is cell-based. The protocol: as §7, §8

Setting [5] is: read-out: p38α DC50 (concentration at which half-maximal degradation is achieved).

Some results are limits rather than exact numbers.

T4 sequence (P08581 25-1390): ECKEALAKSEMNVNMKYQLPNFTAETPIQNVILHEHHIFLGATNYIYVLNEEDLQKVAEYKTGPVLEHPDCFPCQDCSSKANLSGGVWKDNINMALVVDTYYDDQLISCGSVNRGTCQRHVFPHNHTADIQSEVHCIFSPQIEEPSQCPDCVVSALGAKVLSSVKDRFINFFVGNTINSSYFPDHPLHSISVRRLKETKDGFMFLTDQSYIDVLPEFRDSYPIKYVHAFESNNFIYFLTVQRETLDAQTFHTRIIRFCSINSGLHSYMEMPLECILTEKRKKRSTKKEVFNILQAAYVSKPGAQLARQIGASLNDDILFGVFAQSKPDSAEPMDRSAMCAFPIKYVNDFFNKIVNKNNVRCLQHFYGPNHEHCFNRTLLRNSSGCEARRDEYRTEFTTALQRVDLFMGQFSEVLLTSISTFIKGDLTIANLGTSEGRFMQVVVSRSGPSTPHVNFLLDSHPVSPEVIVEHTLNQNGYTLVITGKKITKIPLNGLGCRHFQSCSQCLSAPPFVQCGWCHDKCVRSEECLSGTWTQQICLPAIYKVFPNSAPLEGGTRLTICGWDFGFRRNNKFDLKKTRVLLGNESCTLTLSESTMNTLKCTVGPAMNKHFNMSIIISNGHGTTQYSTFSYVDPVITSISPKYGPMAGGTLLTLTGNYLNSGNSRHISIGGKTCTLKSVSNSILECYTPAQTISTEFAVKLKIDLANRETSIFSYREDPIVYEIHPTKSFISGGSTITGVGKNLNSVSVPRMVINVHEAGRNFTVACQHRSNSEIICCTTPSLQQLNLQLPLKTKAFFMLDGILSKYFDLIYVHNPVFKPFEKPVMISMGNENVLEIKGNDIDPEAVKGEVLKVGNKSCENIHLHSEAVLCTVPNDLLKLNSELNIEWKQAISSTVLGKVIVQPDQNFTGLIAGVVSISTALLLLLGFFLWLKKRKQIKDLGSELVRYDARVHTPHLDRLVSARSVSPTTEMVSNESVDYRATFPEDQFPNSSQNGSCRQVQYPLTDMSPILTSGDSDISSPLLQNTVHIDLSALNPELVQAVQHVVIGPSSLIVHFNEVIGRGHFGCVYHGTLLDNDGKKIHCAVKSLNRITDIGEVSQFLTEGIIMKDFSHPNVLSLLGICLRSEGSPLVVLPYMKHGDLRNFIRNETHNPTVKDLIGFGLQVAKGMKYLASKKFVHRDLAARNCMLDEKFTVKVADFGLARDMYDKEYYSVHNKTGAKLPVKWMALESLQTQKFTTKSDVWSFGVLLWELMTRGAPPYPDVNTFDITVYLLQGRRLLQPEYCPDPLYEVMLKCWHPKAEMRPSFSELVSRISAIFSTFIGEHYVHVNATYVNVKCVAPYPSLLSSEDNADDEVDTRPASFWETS
T1 sequence (P20794 whole entry): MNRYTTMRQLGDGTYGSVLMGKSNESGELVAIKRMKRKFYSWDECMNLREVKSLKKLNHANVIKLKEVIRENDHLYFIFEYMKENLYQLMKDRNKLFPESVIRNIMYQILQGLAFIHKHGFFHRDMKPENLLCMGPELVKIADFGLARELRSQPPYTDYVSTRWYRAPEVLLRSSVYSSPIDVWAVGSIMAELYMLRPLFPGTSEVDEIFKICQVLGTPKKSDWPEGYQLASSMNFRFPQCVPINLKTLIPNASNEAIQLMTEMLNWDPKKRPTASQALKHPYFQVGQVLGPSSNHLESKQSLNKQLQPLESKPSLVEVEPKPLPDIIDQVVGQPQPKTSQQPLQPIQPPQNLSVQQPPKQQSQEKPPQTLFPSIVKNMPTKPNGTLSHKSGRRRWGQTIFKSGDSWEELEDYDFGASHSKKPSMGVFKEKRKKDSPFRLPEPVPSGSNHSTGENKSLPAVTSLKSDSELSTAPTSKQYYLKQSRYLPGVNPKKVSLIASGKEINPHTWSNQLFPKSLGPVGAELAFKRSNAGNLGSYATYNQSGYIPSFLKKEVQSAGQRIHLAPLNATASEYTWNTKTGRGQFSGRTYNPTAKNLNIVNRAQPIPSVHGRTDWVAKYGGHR

On to `COc1cc2c(Oc3ccc(NC(=O)C4(C(=O)Nc5ccc(F)cc5)CC4)cc3F)ccnc2cc1OCCCN1CCOCC1` [Foretinib, foretinib, reference compound], for which the “% Ctrl” value at MAK is given as 55 % Ctrl.

Take `COc1cc2c(Oc3ccc(NC(=O)C4(C(=O)Nc5ccc(F)cc5)CC4)cc3F)ccnc2cc1OCCCOCCOCCCOc1cc(-c2scnc2C)ccc1CNC(=O)[C@@H]1C[C@@H](O)CN1C(=O)[C@H](C(C)C)N1Cc2ccccc2C1=O` [Ex. 5]: the figures for the DC50 at p38δ [1] and on p38α [2] (read-out: p38α DC50) were 4900 nM and no less than 5000 nM, respectively. Besides, the maximal degradation (Dmax) turned out to be 52% at p38δ [1] and 17% at p38α [2].

Regarding `COc1cc2c(Oc3ccc(NC(=O)C4(C(=O)Nc5ccc(F)cc5)CC4)cc3F)ccnc2cc1OCCOCCOCCC(=O)N[C@H](C(=O)N1C[C@H](O)C[C@H]1C(=O)NCc1ccc(-c2scnc2C)cc1)C(C)(C)C` [Ex. 49, N-(3-fluoro-4-((7-(2-(2-(3-(((S)-1-((2S,4R)-4-hydroxy-2-((4-(4-methylthiazol-5-yl)benzyl)carba-moyl)pyrrolidin-1-yl)-3,3-dimethyl-1-oxobutan-2-yl)amino)-3-oxopropoxy)ethoxy)ethoxy)-6-methoxyquinolin-4-yl)oxy)phenyl)-N-(4-fluorophenyl)cyclopropane-1,1-dicarboxamide], the Dmax at p38δ [3] came to 81%; on p38α [4] it was 91%; on cMET it was 49%; on p38δ [1] it was 81%; on p38α [2], 91%. Besides, the DC50 is 51.4 nM at p38δ [3], 40.1 nM at p38α [4], 51.4 nM at p38δ [1] and 40.1 nM on p38α [2] (setting [5]).

Consider `COc1cc2c(Oc3ccc(NC(=O)C4(C(=O)Nc5ccc(F)cc5)CC4)cc3F)ccnc2cc1OCCCOCCOCCC(=O)N[C@H](C(=O)N1C[C@H](O)C[C@H]1C(=O)NCc1ccc(-c2scnc2C)cc1)C(C)(C)C` [Ex. 48, N-(3-fluoro-4-((7-(3-(2-(3-(((S)-1-((2S,4R)-4-hydroxy-2-((4-(4-methylthiazol-5-yl)benzyl)carbamoyl)pyrrolidin-1-yl)-3,3-dimethyl-1-oxobutan-2-yl)amino)-3-oxopropoxy)ethoxy)-propoxy)-6-methoxyquinolin-4-yl)oxy)phenyl)-N-(4-fluorophenyl)cyclopropane-1,1-dicarboxa-mide], for which the Dmax on p38δ [3] was 91%; at p38α [4], 99%; on cMET it was 44%; on p38δ [1], 91%; on p38α [2], 99.4%. Further, the DC50 on p38δ [3] was 91.7 nM; on p38α [4], 18.8 nM; on p38δ [1] it was 91.7 nM; on p38α [2] (setting [5]) it was 18.8 nM.

For `COc1cc2c(Oc3ccc(NC(=O)C4(C(=O)Nc5ccc(F)cc5)CC4)cc3F)ccnc2cc1OCCCCOCCCCOc1cc(-c2scnc2C)ccc1CNC(=O)[C@@H]1C[C@@H](O)CN1C(=O)[C@H](C(C)C)N1Cc2ccccc2C1=O` [Ex. 45], the Dmax at p38δ [3] is 43%; on p38α [4], 27%; on p38δ [1], 44%; at p38α [2], 25%. Further, the DC50 on p38δ [3], at p38α [4], at p38δ [1] and on p38α [2] (read-out: p38α DC50) was greater than 5000 nM in each case.

As to `COc1cc2c(Oc3ccc(NC(=O)C4(C(=O)Nc5ccc(F)cc5)CC4)cc3F)ccnc2cc1OCCCOCCCOCCCOc1cc(-c2scnc2C)ccc1CNC(=O)[C@@H]1C[C@@H](O)CN1C(=O)[C@H](C(C)C)N1Cc2ccccc2C1=O` [Ex. 47, N-(3-fluoro-4-((7-(3-(3-(3-(2-(((2S,4R)-4-hydroxy-1-((S)-3-methyl-2-(1-oxoisoindolin-2-yl)butano-yl)pyrrolidine-2-carboxamido)methyl)-5-(4-methylthiazol-5-yl)phenoxy)propoxy)-propoxy)propoxy)-6-methoxyquinolin-4-yl)oxy)phenyl)-N-(4-fluorophenyl)cyclopropane-1,1-dicarboxamide], the Dmax came to 23% on p38δ [3], 12% at p38α [4], 33% at p38δ [1] and 20% on p38α [2]. Besides, the DC50 at p38δ [3], at p38α [4], on p38δ [1] and on p38α [2] (read-out: p38α DC50) was greater than 5000 nM each time.

Usually Dmax stands for the largest share of the target that was removed.
